The term AUC denotes concentration integrated over time. Lower therefore signals low exposure. One may read the inhibition as the change of the read-out against control, counted positive when it falls. Read a low inhibition as a weak effect. As usually defined, the pIC50 is −log10 of the IC50, conventionally taken in molar units. A low value points to a large IC50. Usually pEC50 stands for −log10 of the EC50, conventionally taken in molar units.

Results on 9 compounds are retold here after ChEMBL document CHEMBL5233270, “DYRK1A Inhibitors as Potential Therapeutics for β-Cell Regeneration for Diabetes” (J Med Chem, 2021).

Data set [1] in a line: Cytotoxicity against mouse R7T1 cells assessed as reduction in cell viability. The data set is classed as functional.
The nature of data set [2]: Selectivity ratio of CC50 for mouse R7T1 cells to ECmin for mouse pancreatic islet cells. The data set is classed as toxicity. The note with it: R7T1 cells (CC50) and pancreatic islet cells (ECmin).
Data set [3] can be described thus: Induction of rat Pancreatic beta cell proliferation at 1 uM assessed as increase in fold chain after 6 days in presence of EdU incorporation by Cell-Titer Glo assay. Format: functional. Particulars: time 6 day.
The nature of data set [4]: Volume of distribution at steady state in mouse, po. The data set is classed as ADME. The note with it: in vivo.
A short description of data set [5]: AUC (0 to infinity) in mouse at 1 mg/kg, po. Format: ADME, organism-based. Also noted: dose 1 mg/kg, route po. The note with it: in vivo.
Data set [6] addresses Dual specificity protein kinase CLK1/CLK2/CLK4 (Homo sapiens) (UniProt Q9HAZ1+P49759+P49760). The data set is described as follows: Inhibition of CLK1/2/4 (unknown origin) relative to control. Format: protein assay. The note with it: concentration not given here.
Data set [7] is described as follows: Synergistic […] activity against human Pancreatic beta cell proliferation in presence of GLP1 at 5 nM by Ki-67 immuno labelling assay. Format: functional.
The nature of data set [8]: Synergistic […] activity against human Pancreatic beta cell proliferation in NSG mouse model at 0.5 ug/kg by immuno labelling assay. Format: functional.
The target of data set [9] is Glycogen synthase kinase-3 beta (Homo sapiens, UniProt P49841). The data set is described as follows: Inhibition of GSK3beta (unknown origin).
The nature of data set [10]: Induction of human Pancreatic beta cell proliferation at 50 mg/kg measured after 5 days in presence of EdU incorporation by Cell-Titer Glo assay. The data set is classed as functional. The note with it: 120 h.

pEC50, pIC50: −log10 of the molar value. A value given as a limit tells only on which side of the number the result lay.

Chain of Dual specificity protein kinase CLK1/CLK2/CLK4 (Homo sapiens) (P49759 whole entry, looked up): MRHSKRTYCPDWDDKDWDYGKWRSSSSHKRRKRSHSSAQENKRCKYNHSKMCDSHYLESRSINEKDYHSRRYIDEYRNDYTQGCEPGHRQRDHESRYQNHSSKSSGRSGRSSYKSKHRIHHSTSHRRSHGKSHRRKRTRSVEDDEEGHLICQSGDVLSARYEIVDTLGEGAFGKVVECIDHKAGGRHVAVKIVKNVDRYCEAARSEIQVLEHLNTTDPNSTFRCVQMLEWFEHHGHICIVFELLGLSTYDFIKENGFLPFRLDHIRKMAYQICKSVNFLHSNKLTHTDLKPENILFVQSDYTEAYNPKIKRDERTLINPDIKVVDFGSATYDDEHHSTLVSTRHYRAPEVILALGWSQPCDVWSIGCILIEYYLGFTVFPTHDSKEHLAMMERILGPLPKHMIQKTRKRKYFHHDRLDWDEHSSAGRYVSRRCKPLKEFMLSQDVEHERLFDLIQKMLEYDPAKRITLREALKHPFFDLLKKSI
Chain of Dual specificity protein kinase CLK1/CLK2/CLK4 (Homo sapiens) (P49760 whole entry, looked up): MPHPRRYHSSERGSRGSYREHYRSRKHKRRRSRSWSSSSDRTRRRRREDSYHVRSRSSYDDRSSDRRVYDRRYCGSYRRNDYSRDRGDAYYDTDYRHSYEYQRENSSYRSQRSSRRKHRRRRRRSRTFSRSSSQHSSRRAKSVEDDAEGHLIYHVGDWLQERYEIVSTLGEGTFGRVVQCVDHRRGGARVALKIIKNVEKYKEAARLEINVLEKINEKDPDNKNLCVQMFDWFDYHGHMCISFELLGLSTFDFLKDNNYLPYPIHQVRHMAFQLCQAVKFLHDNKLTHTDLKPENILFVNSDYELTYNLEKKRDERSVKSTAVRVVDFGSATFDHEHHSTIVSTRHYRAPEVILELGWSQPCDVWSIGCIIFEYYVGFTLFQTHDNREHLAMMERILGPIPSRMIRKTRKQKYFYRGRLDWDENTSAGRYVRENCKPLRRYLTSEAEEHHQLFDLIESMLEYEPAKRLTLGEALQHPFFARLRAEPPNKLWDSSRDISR
Chain of Dual specificity protein kinase CLK1/CLK2/CLK4 (Homo sapiens) (Q9HAZ1 whole entry, looked up): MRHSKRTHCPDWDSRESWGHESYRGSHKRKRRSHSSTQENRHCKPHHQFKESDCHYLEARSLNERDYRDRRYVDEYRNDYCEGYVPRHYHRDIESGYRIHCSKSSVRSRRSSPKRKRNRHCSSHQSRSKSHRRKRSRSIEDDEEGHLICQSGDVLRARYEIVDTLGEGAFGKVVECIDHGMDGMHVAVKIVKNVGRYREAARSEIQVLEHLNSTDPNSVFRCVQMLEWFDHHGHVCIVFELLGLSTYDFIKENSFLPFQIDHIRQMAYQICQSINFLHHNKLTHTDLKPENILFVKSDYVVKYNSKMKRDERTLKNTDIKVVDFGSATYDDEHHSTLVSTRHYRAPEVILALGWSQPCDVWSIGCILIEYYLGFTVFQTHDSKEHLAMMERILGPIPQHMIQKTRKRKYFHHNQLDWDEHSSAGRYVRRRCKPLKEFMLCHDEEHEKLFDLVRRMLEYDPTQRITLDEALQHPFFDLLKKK
Chain of Glycogen synthase kinase-3 beta (P49841 whole entry): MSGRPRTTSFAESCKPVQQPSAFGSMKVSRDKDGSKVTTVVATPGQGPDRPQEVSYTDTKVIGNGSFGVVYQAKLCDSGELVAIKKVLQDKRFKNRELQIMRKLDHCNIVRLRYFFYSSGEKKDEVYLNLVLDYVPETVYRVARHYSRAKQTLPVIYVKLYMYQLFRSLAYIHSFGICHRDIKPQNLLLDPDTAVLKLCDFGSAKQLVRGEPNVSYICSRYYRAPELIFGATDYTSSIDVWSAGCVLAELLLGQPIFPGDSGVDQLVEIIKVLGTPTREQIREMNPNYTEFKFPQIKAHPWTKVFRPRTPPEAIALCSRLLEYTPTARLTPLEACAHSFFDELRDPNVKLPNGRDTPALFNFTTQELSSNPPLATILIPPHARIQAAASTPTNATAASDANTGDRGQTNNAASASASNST

For `CCOC(=O)c1cnc2ccc(-c3cc(Cl)c(O)c(Cl)c3)nc2c1NC1CCN(C)CC1`, in data set [1], the Emin came out at 10 nM. The selectivity ratio in data set [2] stood at 117.
On to `Nc1ncnc2c1c(I)cn2[C@@H]1O[C@H](CO)[C@@H](O)[C@H]1O` [IODOTUBERCIDIN], for which the “fold change (FC)” value in [3] is 10.
With `CCN1CCN(C(=O)Nc2cc(-c3cn(C4CCOCC4)c4cnccc34)ccn2)CC1`, in [4], the Vdss turned out to be 11 L/kg. In [5], this compound gave an AUC of 3.27 µM·h. The inhibition in [6] is 90%.
As to `CCOC(=O)c1cnc2ccc(-c3ccncc3)nc2c1N[C@H]1CC[C@H](CN(C)C)CC1`, the selectivity ratio in data set [2] amounted to 259.
For the compound `COc1ccc2c(c1)[nH]c1c(C)nccc12` [HARMINE], the values for the Activity in data set [7] and in data set [8] were 5% and 0.8%, respectively.
With `COc1ccc2c(c1)[nH]c1c(CO)nccc12`, the pIC50 in data set [9] was < 5.08.
In the case of `CCOC(=O)c1cnc2ccc(-c3ccncc3)nc2c1N[C@H]1CC[C@H](CN2CCOCC2)CC1`, the Emin in [1] is recorded as 3.3 nM. In addition, in data set [2], the selectivity ratio was found to be 143.
For the compound `CC(C)Oc1ccc(F)c(-c2cnc(N)c(C(=O)Nc3cnccc3N3CCCC(C(=O)O)C3)n2)c1` (centres undefined), the Emin in data set [1] is <100 nM.
Take `Nc1ncc(-c2ccccc2)nc1C(=O)Nc1cnccc1N1CCC(C(=O)O)CC1`: in data set [10], the pEC50 was 9.12.
